Results on 11 compounds are retold here after US20050171350A1, “Benzhydryl derivatives” (Fujisawa Pharamaceutical Co., Ltd., priority 2001, published 2005).

Data set [1] concerns emesis in the dog. Put plainly: Emesis in the Dog (apomorphine-induced retching and vomiting). Format: in vivo. To be noted: adult female dogs; test compound i.v. at the dose of 1.0 mg/kg; 5 min later subcutaneous apomorphine (0.1 mg/0.5 ml/kg); observed for 60 min. As for the experimental part: Individually housed adult female dogs (8 to 15 kg) were given an i.v. injection of a solution containing a test compound. 5 Min later the emetic responses (retching and vomiting) were induced by administration of subcutaneous apomorphine (0.1 mg/0.5 ml/kg) and observed for the next 60 min. The timing and number of retches and vomits observed were recorded for each animal. An individual animal was tested with at least 10 days between experiments.

The melting point is the temperature, or range, at which the solid turns liquid. In turn, `COc1nc(C)nc(OC)c1CN1C[C@@H]2CN(C(=O)CO)CCN2[C@H](C(c2ccccc2)c2ccccc2)C1.Cl.Cl` displayed a melting point of 129 to 132 °C.
Same read-out and setting: in the case of `COc1nc(Cl)nc(OC)c1CN1C[C@@H]2CN(C(=O)CO)CCN2[C@H](C(c2ccccc2)c2ccccc2)C1.Cl.Cl` it was 150 to 155 °C (dec.).
On the same count and under the same terms, in the case of `COc1nc(OC)c(CN2C[C@@H]3CN(C(=O)N4CCOCC4)CCN3[C@H](C(c3ccccc3)c3ccccc3)C2)c(OC)n1.Cl.Cl` it was 139 to 143 °C; in that of `CCOc1nc(OC)nc(OC)c1CN1C[C@@H]2CN(C(=O)CO)CCN2[C@H](C(c2ccccc2)c2ccccc2)C1.Cl.Cl`, 150 to 152 °C (dec.).
Still for that read-out and setting: then `COc1nc(C)c(CN2C[C@@H]3CN(C(=O)CO)CCN3[C@H](C(c3ccccc3)c3ccccc3)C2)c(OC)n1.Cl.Cl`, with 174 to 177 °C; and `COc1nc(OC)c(CN2C[C@@H]3CN(C(=O)CO)CCN3[C@H](C(c3ccccc3)c3ccccc3)C2)c(OC(C)C)n1.Cl.Cl`, with 145 to 148 °C (dec.).
The compound `COc1nc(OC)c(CN2C[C@@H]3CN(C(=O)CO)CCN3[C@H](C(c3ccccc3)c3ccccc3)C2)c(OCC(F)F)n1.Cl.Cl` yielded a melting point of 143 to 146 °C.
As for `COc1nc(OC)c(CN2C[C@@H]3CN(C(=O)CO)CCN3[C@H](C(c3ccccc3)c3ccccc3)C2)c(OC)n1.Cl.Cl` [Example 1, 2-[(6R, 9aR)-6-benzhydryl-8-[(2,4,6-trimethoxy-5-pyrimidinyl)methyl]octahydro-2H-pyrazino[1,2-a]pyrazin-2-yl]-2-oxoethanol dihydrochloride], the melting point was 155 to 158 °C (dec.). Also, the “inhibition rate of emesis in the dog” value in data set [1] turned out to be 100%.
On to `COc1nc(Cl)c(CN2C[C@@H]3CN(C(=O)CO)CCN3[C@H](C(c3ccccc3)c3ccccc3)C2)c(OC)n1.Cl.Cl`, for which the melting point is 98 to 101 °C (dec.).
On the same count and under the same terms, then `COc1nc(OC)c(CN2C[C@@H]3CN(C(=O)c4cccnc4)CCN3[C@H](C(c3ccccc3)c3ccccc3)C2)c(OC(C)C)n1.Cl.Cl.Cl`, with 143 to 147 °C; and `COc1nc(OC)c(CN2C[C@@H]3CN(C(=O)CO)CCN3[C@H](C(c3ccccc3)c3ccccc3)C2)c(OC2CCC2)n1.Cl.Cl`, with 141 to 145 °C.
